Laboratory results reported in paper PMC6901946, “Intranasal MMI-0100 Attenuates Aβ1−42- and LPS-Induced Neuroinflammation and Memory Impairments via the MK2 Signaling Pathway” (Frontiers in Immunology, 2019).
Ends that are not written are not given here.

What was measured:
Kunming mice [1] = experiment: Object location recognition (OLR) task; format: in vivo, mouse; settings: Aβ1−42 800 pmol i.c.v. 14 days before, tested after 24 h
Procedure: (§1) MMI-0100 or vehicle was infused into the brain by using a 32-gauge stainless steel syringe needle placed in and projecting 0.5 mm below the tip of the cannula for 2 min. This needle was connected via a PE tube to a 5-μl Hamilton syringe mounted to a Microdrive pump (KD Scientific). To allow the drug to diffuse, the infusion syringe remained in place for 1 min. For the lateral ventricle, injection volume is 2 μl, and for the bilateral hippocampus CA1, injection volume is 0.5 μl/side. After drug administration, each mouse was subjected to behavioral testing immediately. In addition, the selection of the doses was based on the previous reports and our preliminary observations ([24]).
(§2) The behavior experiments were carried out 15 min after i.c.v. injection of MMI-0100, or 2 h after intranasal infusion of MMI-0100. The cytokines were measured 15 min after i.c.v. injection of MMI-0100.
(§3) The procedures for the novel object recognition (NOR) and object location recognition (OLR) tasks were described in our previous report ([23], [30]). The videos for NOR and OLR tasks were shown in Supplementary Material. […] The discrimination index (DI) in the memory retention phase was calculated as the percentage of the time a mouse explored the new object or location over the total time the mouse explored the two objects or locations. […]

IL-6, IL-1β, TNF-α, iNOS = experiment: Quantitative PCR of pro-inflammatory factors in hippocampus; format: in vivo, mouse; settings: Aβ1−42-induced model; 15 min after i.c.v. MMI-0100; Figure 5; n = 5
Procedure: Amnesia was caused by Aβ1−42 injection for 14 days or LPS infusion for 3 days; 15 min after injection of MMI-0100 or vehicle, the hippocampus was removed from mice. Real-time RT-PCR was performed according to a previous report ([31]). Total RNA was extracted using Trizol reagent (TaKaRa) and 1 μg of RNA in each sample was reversely transcribed into a single-stranded complementary DNA with the 5X PrimeScript RT Master Mix (TaKaRa) following the manufacturer's instructions. Amplification was carried out in a 25 μl reaction mixture consisting of 12.5 μl of 2X SYBR Premis Ex TaqTM II, 2 μl of cDNA, 1 μl of forward primer, 1 μl of reverse primer, and 8.5 μl of H2O, and was run under the following conditions: 95°C for 30 s, followed by 40 cycles of 95°C for 5 s, 58°C for 30 s, and 72°C for 30 s. The primer pair P1/P2 was used in the RT-PCR assay to identify the expression level of TNF-α, IL-6, IL-1β, and iNOS gene in vehicle + vehicle-, Aβ1−42 + vehicle-, Aβ1−42 + MMI-0100-, LPS + vehicle-, and LPS + MMI-0100-treated groups.

Kunming mice [2] = experiment: Novel object recognition (NOR) task; format: in vivo, mouse; settings: Aβ1−42 800 pmol i.c.v. 14 days before, tested after 24 h
Procedure: as §1, §2, §3

MK2 = molecular target: T1, MK2 (Mus musculus, UniProt P49138); experiment: Western blotting of pMK2 in hippocampus; format: in vivo; settings: Aβ1−42-induced model; Figure 7; n = 5
T1 construct: the protein samples (40 μg per lane) isolated from the hippocampus were separated by SDS-PAGE; from tissue; host or cells: mouse hippocampus
Procedure: Western blotting was carried out as per the manufacturer's instructions (Bio-Rad Laboratories, Inc). Protein was extracted with RIPA buffer containing protease inhibitor (Gibco; Thermo Fisher Scientific, Inc.). The protein concentration was determined using a BCA protein assay kit (Pierce; Thermo Fisher Scientific, Inc.). Briefly, the protein samples (40 μg per lane) isolated from the hippocampus were separated by SDS-PAGE and electrophoretically transferred onto polyvinylidene fluoride membranes. Membranes were blocked with 5% skimmed milk for 2 h and incubated overnight at 4°C with specific first antibodies. GAPDH was used as a loading control. Subsequently, the membranes were incubated with the corresponding secondary antibodies and the reaction was visualized with chemiluminescence reagents provided with an ECL kit (Thermo) and exposed to a film. The intensity of the blots was quantified with densitometry (Image J 1.49v; National Institutes of Health).

TNF-α, IL-1β, IL-6 = experiment: ELISA of pro-inflammatory cytokines in hippocampus; format: in vivo, mouse; settings: Aβ1−42-induced model, Figure 6, n = 5
Procedure: Total proteins from the hippocampus of mice in each group were extracted with RIPA lysis buffer containing protease inhibitor (Gibco, Thermo Fisher Scientific, Inc.). Total proteins were determined using a bicinchoninic acid protein assay kit (Sangon Biotech Co., Ltd.). IL-1β, IL-6, and TNF-α in the hippocampus tissue were measured using ELISA kits (cat number: E-EL-M0049 for TNF-α, cat number: E-EL-M0044 for IL-6, cat number: E-EL-M0037 for IL-1β, Elabscience), according to the manufacturer's instructions.

in vitro = settings: mouse, brain homogenates
Procedure: The peptide levels after incubation were expressed as percent parent remaining. Points indicate the means and vertical lines indicate the SEM of 3 separate experiments.

[3] = intranasal experiment (Figure 10), MMI-0100 25 nmol intranasal or vehicle

T1 sequence (P49138 whole entry): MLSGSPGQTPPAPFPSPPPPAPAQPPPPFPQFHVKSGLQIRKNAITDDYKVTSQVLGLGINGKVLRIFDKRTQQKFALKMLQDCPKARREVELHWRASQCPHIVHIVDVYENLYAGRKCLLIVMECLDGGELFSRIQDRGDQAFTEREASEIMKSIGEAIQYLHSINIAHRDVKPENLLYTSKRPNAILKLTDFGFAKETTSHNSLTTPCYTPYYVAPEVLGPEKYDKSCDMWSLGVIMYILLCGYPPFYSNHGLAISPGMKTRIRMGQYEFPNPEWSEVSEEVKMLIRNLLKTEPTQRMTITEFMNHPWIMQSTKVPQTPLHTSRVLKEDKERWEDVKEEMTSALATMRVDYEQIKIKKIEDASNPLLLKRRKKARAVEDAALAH

| Substance | discrimination index (DI), OLR (Kunming mice [1]; Figure 3A, MMI-0100 5 nmol i.c.v. or vehicle, chance level 50%) [%] | discrimination index (DI), OLR (Kunming mice [1]; [3]) [%] | mRNA level of IL-6, IL-1β, TNF-α and iNOS in hippocampus (IL-6, IL-1β, TNF-α, iNOS) | discrimination index (DI), NOR (Kunming mice [2]; Figure 2A, MMI-0100 5 nmol i.c.v. or vehicle, chance level 50%) [%] | discrimination index (DI), NOR (Kunming mice [2]; [3]) [%] | phosphorylation of MK2 (pMK2/tMK2) in hippocampus (MK2) | protein levels of IL-6, IL-1β and TNF-α in hippocampus (TNF-α, IL-1β, IL-6) | half-life (in vitro) [h] |
| --- | --- | --- | --- | --- | --- | --- | --- | --- |
| Aβ1−42: Aβ1−42 peptide purchased from Hangzhou Chinese Peptide Biochemical Company, oligomer used to induce AD model | 48.04 | 46.31 | dramatically increased | 50.96 | 50.98 | significantly up-regulated | higher |  |
| YARAAARQARAKALARQLGVAA [MMI-0100] |  |  |  |  |  |  |  | ~2.69 |
